Measured values published in patent US9730931B2, “Pyrimidine FGFR4 inhibitors” (priority 2013, dated 2017).
Like-named read-outs stand apart in the source and are kept apart here.

Test system: Hep3B xenograft
Type: in vivo

SMILES	Tolerability (health of animals) (30 mg/kg orally twice daily)	Comparative in vivo efficacy (60 mg/kg orally twice daily)	Tolerability (health of animals) (60 mg/kg orally twice daily)	Comparative in vivo efficacy (25, 37.5 or 50 mg/kg i.p. twice daily)
CCN1CCN(c2ccc(Nc3cc(N(C)C(=O)Nc4c(Cl)c(OC)cc(OC)c4Cl)ncn3)cc2)CC1 [BGJ398]	did not exhibit poor health	efficacy comparable to compound 108	terminated on Day 11 due to poor health of animals	
C=CC(=O)Nc1cc(N2CCN(CC)CC2)ccc1Nc1cc(N(C)C(=O)Nc2c(Cl)c(OC)cc(OC)c2Cl)ncn1 [Example 108, N-(2-(6-(3-(2,6-Dichloro-3,5-dimethoxyphenyl)-1-methylureido)-pyrimidin-4-ylamino)-5-(4-ethylpiperazin-1-yl)-phenyl)-acrylamide]				more efficacious than BGJ398 at tolerable dosage levels
